Laboratory results published in patent publication US20240174618A1, “SUBSTITUTED (2-HETEROARYLOXYPHENYL)SULFONATES, SALTS THEREOF AND THEIR USE AS HERBICIDAL AGENTS” (Bayer Aktiengesellschaft, priority 2021, published 2024).

Experiments:
Assay type in all cases: in vivo
[1] = system: Echinochloa crus-galli (ECHCG); assay: B. Herbicidal post-emergence efficacy, ECHCG; settings: rated visually after about 3 weeks
Summary of the method: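 First, seeds were sown in sandy loam and grown 2 to 3 weeks under controlled greenhouse conditions. Next, foliage at the one-leaf stage received the formulated compound in water with 0.5% additive (600 L/ha, 1280 g/ha or less). Finally, damage was rated visually after about 3 weeks against untreated plants.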

[2] = system: Viola tricolor (VIOTR); assay: C. Herbicidal pre-emergence efficacy, VIOTR
Summary of the method: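 Pre-emergence test: formulated compounds sprayed as aqueous suspension or emulsion with 0.5% additive at 600 l/ha onto soil covering sown seeds, at rates corresponding to 320 g/ha or less. After about 3 weeks in greenhouse, efficacy scored visually as percent versus untreated controls (100% = plants dead).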

[3] = system: Abutilon theophrasti (ABUTH); assay: A. Herbicidal pre-emergence efficacy, ABUTH; settings: scored visually after about 3 weeks vs untreated controls
Summary of the method: (§1)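 Pre-emergence soil-surface spray in sandy loam pots, WP/EC in water plus 0.5% additive, 600 L/ha. Visual % damage rating after about 3 weeks in greenhouse vs. untreated; 0% = control-like, 100% = dead plants. Rates up to 1280 g/ha.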

[4] = system: Matricaria inodora (MATIN); assay: A. Herbicidal pre-emergence efficacy, MATIN
Summary of the method: as §1

[5] = system: Setaria viridis (SETVI); assay: E. Herbicidal post-emergence efficacy, SETVI
Summary of the method: (§2)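 Greenhouse post-emergence spray, one-leaf stage (2–3 wk after sowing, sandy loam); WP/EC formulation, aqueous + 0.5% additive, 600 l/ha water; rates 320 g/ha or less. Visual rating ~3 wk later vs untreated; 0% = control-like, 100% = dead.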

[6] = system: Polygonum convolvulus (POLCO); assay: E. Herbicidal post-emergence efficacy, POLCO
Summary of the method: as §2

[7] = system: Digitaria sanguinalis (DIGSA); assay: A. Herbicidal pre-emergence efficacy, DIGSA; settings: scored visually after about 3 weeks vs untreated controls
Summary of the method: as §1

[8] = system: Kochia scoparia (KCHSC); assay: E. Herbicidal post-emergence efficacy, KCHSC
Description: Seeds of monocotyledonous and dicotyledonous weeds and crop plants were placed in sandy loam in plastic or organic planting pots, covered with soil and cultivated in a greenhouse under controlled growth conditions. 2 to 3 weeks after sowing, the test plants were treated at the one-leaf stage. The compounds of the invention, formulated in the form of wettable powders (WP) or as emulsion concentrates (EC), were then sprayed onto the green parts of the plants as aqueous suspension or emulsion with addition of 0.5% additive at a water application rate of 600 l/ha (converted). After the test plants had been kept in the greenhouse under optimum growth conditions for about 3 weeks, the activity of the preparations was rated visually in comparison to untreated controls.
For example, • 100% efficacy=plants have died, • 0% action=like untreated control plants.
Tables E1a to E12b below show the effects of selected compounds of the general formula (I) according to table 1 on various harmful plants at an application rate corresponding to 320 g/ha or less, which were obtained by the experimental procedure mentioned above.

[9] = 320 g/ha, scored visually after about 3 weeks vs untreated controls
[10] = pre-emergence, dosage 1280 g/ha

SMILES | Post-emergence efficacy against ECHCG in % ([1]; 80 g/ha) | Post-emergence efficacy against ECHCG in % ([1]; 320 g/ha) | Post-emergence efficacy against ECHCG in % ([1]; 1280 g/ha) | Pre-emergence efficacy against VIOTR in % ([2]; application rate 80 g/ha) | Pre-emergence efficacy against VIOTR in % ([2]; application rate 320 g/ha) | Pre-emergence efficacy against ABUTH ([3]; 80 g/ha) | Pre-emergence efficacy against ABUTH ([3]; 320 g/ha) | Pre-emergence efficacy against ABUTH ([3]; 1280 g/ha) | Pre-emergence efficacy against MATIN [4, 9] | Pre-emergence efficacy against MATIN [4, 10] | Post-emergence efficacy against SETVI in % ([5]; application rate 80 g/ha) | Post-emergence efficacy against SETVI in % ([5]; application rate 320 g/ha) | Post-emergence efficacy against POLCO in % ([6]; application rate 80 g/ha) | Post-emergence efficacy against POLCO in % ([6]; application rate 320 g/ha) | Pre-emergence efficacy against DIGSA ([7]; 80 g/ha) | Pre-emergence efficacy against DIGSA ([7]; 320 g/ha) | Pre-emergence efficacy against DIGSA ([7]; 1280 g/ha) | Post-emergence efficacy against KCHSC in % ([8]; application rate 80 g/ha) | Post-emergence efficacy against KCHSC in % ([8]; application rate 320 g/ha)
O=S(=O)(CCCC(F)(F)F)Oc1ccccc1Oc1ncc(Cl)cn1 [Example I-10] | 100% | 100% | 100% | 90% | 100% | 100% | 100% | 100% | 100% | 100% | 100% | 100% | 90% | 100% |  |  |  |  | 
O=S(=O)(CCCCl)Oc1c(F)cccc1Oc1ncc(Cl)cn1 [Example I-14] |  | 100% | 100% | 100% | 100% | 100% | 100% | 100% |  | 100% | 100% | 100% | 80% | 90% | 100% | 100% | 100% |  | 
O=S(=O)(CC1CC1)Oc1ccccc1Oc1ncc(Cl)cn1 [Example I-23] |  | 90% | 90% | 100% | 100% | 90% | 90% | 100% | 90% | 100% | 80% | 100% | 100% | 100% | 90% | 100% | 100% |  | 
O=S(=O)(CCC(F)(F)F)Oc1c(Cl)cccc1Oc1ncc(Br)cn1 [Example I-32] | 90% | 90% | 100% | 100% | 100% |  | 90% | 100% |  | 90% | 80% | 100% | 80% | 100% |  | 90% | 90% | 90% | 100%
O=S(=O)(CCCC(F)(F)F)Oc1c(Cl)cccc1Oc1ncc(Br)cn1 [Example I-34] |  | 90% | 90% | 100% | 100% |  |  | 90% |  |  | 90% | 90% |  | 100% |  |  | 90% | 100% | 100%
C=CCS(=O)(=O)Oc1ccccc1Oc1ncc(Cl)cn1 [Example I-36] |  |  |  |  |  |  | 100% | 100% |  |  |  |  |  |  |  | 90% | 100% |  | 90%
O=S(=O)(CCC(F)(F)F)Oc1c(Cl)cccc1Oc1ncc(Cl)cn1 [Example I-38] |  |  |  | 100% | 100% | 100% | 100% | 100% | 100% | 100% | 100% | 100% | 100% | 100% |  | 100% | 100% | 100% | 100%
O=S(=O)(CCCC(F)(F)F)Oc1c(Cl)cccc1Oc1ncc(Cl)cn1 [Example I-39] |  |  |  | 100% | 100% | 90% | 100% | 100% | 100% | 100% | 100% | 100% |  | 100% | 100% | 100% | 100% | 100% | 100%
